# Results reported in US12297434B1, “Biomarker for predicting drug resistance of bruton's tyrosine kinase inhibitors and application thereof” (Beijing Friendship Hospital, Capital Medical University, priority 2024, dated 2025).
# Columns and labels:
# Assay type in all cases: cell-based, Human
# U2932 cells = experiment: CCK8 cell viability, zebutinib on U2932; settings: parental ABC-DLBCL cell line U2932, CCK8 method; read-out: half maximal inhibitory concentration (IC50)
# Excerpt: (§1) Human ABC-DLBCL cell lines (SUDHL2, U2932 and OCI-LY10) are purchased from American Type Culture Collection (ATCC) cell bank. The BTK inhibitor-resistant ABC-DLBCL-R cell line is constructed according to the drug concentration gradient increment method, and the BTK inhibitor used in the present disclosure is zebutinib. […] All the patients were diagnosed according to the 2016 revision of the WHO classification of lymphoid neoplasms. Before the study, written informed consent was obtained from each patient and healthy volunteer.
# (§2) The drug concentration gradient is used to induce zebutinib resistance to BTK inhibitor in ABC-DLBCL cell lines (SUDHL2, U2932 and OCI-LY10). Tumor cells in the logarithmic growth phase are taken, and zebutinib at a starting concentration of 2 micromoles per liter (μmol/L) (about 1/10 of the IC50 of the parental cell line) is added to act for 24 hours (h). […]
# (§3) Cell activity is measured using a cell counting kit-8 (CCK-8, Dojindo, Japan). […] The absorbance at 450 nm is measured by ELX808 microplate spectrophotometer (BioTekInstruments, Winooski, VT, USA). Colony formation experiment: cells are inoculated into a 6-well plate with 500 cells per well, three copies in one group, and cultured for 10-14 days to form colonies, followed by […] in formaldehyde and staining with crystal violet, and the visible colonies are counted. […]
# [1] = system: OCI-LY10-R cells (zebutinib-resistant ABC-DLBCL cell line); experiment: CCK8 cell viability, zebutinib on OCI-LY10-R
# Excerpt: as §1, §2, §3
# [2] = system: U2932-R cells (zebutinib-resistant ABC-DLBCL cell line); experiment: CCK8 cell viability, zebutinib on U2932-R
# Excerpt: as §1, §2, §3
# SUDHL2 cells = experiment: CCK8 cell viability, zebutinib on SUDHL2; settings: parental ABC-DLBCL cell line SUDHL2, CCK8 method; read-out: half maximal inhibitory concentration (IC50)
# Excerpt: as §1, §2, §3
# [3] = system: SUDHL2-R cells (zebutinib-resistant ABC-DLBCL cell line); experiment: CCK8 cell viability, zebutinib on SUDHL2-R
# Excerpt: as §1, §2, §3
# OCI-LY10 cells = experiment: CCK8 cell viability, zebutinib on OCI-LY10; settings: parental ABC-DLBCL cell line OCI-LY10, CCK8 method; read-out: half maximal inhibitory concentration (IC50)
# Excerpt: as §1, §2, §3
structure (smiles),measurement,setting,value
C=CC(=O)N1CCC([C@@H]2CCNc3c(C(N)=O)c(-c4ccc(Oc5ccccc5)cc4)nn32)CC1 [zebutinib],IC50,U2932 cells,28 µM
same,resistance index (RI),"[1]; RI=IC50 of drug-resistant cell line/IC50 of parental cell line, OCI-LY10-R vs OCI-LY10",5.23
same,IC50,"[1]; drug-resistant cell line OCI-LY10-R, CCK8 method, read-out: half maximal inhibitory concentration (IC50)",118 µM
same,resistance index (RI),"[2]; RI=IC50 of drug-resistant cell line/IC50 of parental cell line, U2932-R vs U2932",5.14
same,IC50,"[2]; drug-resistant cell line U2932-R, CCK8 method, read-out: half maximal inhibitory concentration (IC50)",144 µM
same,IC50,SUDHL2 cells,17.1 µM
same,resistance index (RI),"[3]; RI=IC50 of drug-resistant cell line/IC50 of parental cell line, SUDHL2-R vs SUDHL2",5.28
same,IC50,"[3]; drug-resistant cell line SUDHL2-R, CCK8 method, read-out: half maximal inhibitory concentration (IC50)",90.3 µM
same,IC50,OCI-LY10 cells,22.5 µM
